Among the test systems are DU-145 prostate; HL-60(TB) leukemia; T-47D breast; HOP-62 NSCLC; A498 renal; CCRF-CEM leukemia; HCC-2998 colon; MOLT-4 leukemia; M14 melanoma; HT29 colon; SF-539 CNS; UACC-257 melanoma; SK-OV-3 ovarian; SR leukemia.
Test in all cases: NCI-60 cell line screen, 48 h

These results are taken from PubChem BioAssay (NCI).

Each structure is given as a SMILES string.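 Assay format: 96-well plates, 48-hour exposure. Definition used: TGI = concentration required for complete inhibition of growth.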

For `COc1cc2c3c([nH]c2c(OC)c1OC)CCN(Cc1ccccc1)C3`, the TGI in the assay on DU-145 prostate is over 100 µM; with HL-60(TB) leukemia it was over 100 µM; in the assay with T-47D breast, 68.6 µM; in the assay with HOP-62 NSCLC it was over 100 µM; in the assay with A498 renal, 72.3 µM; in the assay with CCRF-CEM leukemia it was over 100 µM. Besides, the TGI is 34.6 µM in the assay with HCC-2998 colon; over 100 µM with MOLT-4 leukemia; 30 µM in the assay on M14 melanoma; 49.9 µM with HT29 colon; 38.5 µM in the assay with SF-539 CNS; 40 µM with UACC-257 melanoma.

Take `NC(Cc1ccc(S(=O)(=O)O)cc1)C(=O)NC(Cc1ccc(S(=O)(=O)O)cc1)C(=O)NC(Cc1ccc(S(=O)(=O)O)cc1)C(=O)NC(Cc1ccc(S(=O)(=O)O)cc1)C(=O)O` (stereo not given): the TGI in the assay with DU-145 prostate, with T-47D breast, in the assay on SK-OV-3 ovarian, in the assay on HOP-62 NSCLC, in the assay on A498 renal and in the assay on CCRF-CEM leukemia was over 100 µM throughout. Also, the TGI in the assay on HCC-2998 colon, in the assay with MOLT-4 leukemia, in the assay on M14 melanoma, with HT29 colon, in the assay on SF-539 CNS and with UACC-257 melanoma was over 100 µM in each case.

For `c1ccc(N=C2c3ccsc3C(=Nc3ccccc3)c3ccsc32)cc1`, the TGI was 3.12 µM with DU-145 prostate; 4.2 µM in the assay with HL-60(TB) leukemia; 4.06 µM in the assay with T-47D breast; 16.3 µM in the assay with SK-OV-3 ovarian; 3 µM with HOP-62 NSCLC; 14.8 µM in the assay with A498 renal. Further, the TGI in the assay with CCRF-CEM leukemia was determined as 15 µM; in the assay on HCC-2998 colon it was 7.25 µM; with MOLT-4 leukemia, 3.77 µM; in the assay on M14 melanoma, 2.32 µM; in the assay on HT29 colon, 13.7 µM; in the assay with SF-539 CNS it was 3.83 µM. For the same compound, the TGI in the assay with UACC-257 melanoma was 2.67 µM.

For the compound `O=c1[nH]c2nc3ccccc3c(=O)n2/c1=C/c1ccco1`, the TGI in the assay on DU-145 prostate, in the assay on HL-60(TB) leukemia, in the assay with T-47D breast, in the assay with SK-OV-3 ovarian, in the assay with HOP-62 NSCLC and in the assay on CCRF-CEM leukemia was over 100 µM throughout. Moreover, the TGI with HCC-2998 colon, in the assay on MOLT-4 leukemia, with SR leukemia, in the assay on M14 melanoma, with HT29 colon and with SF-539 CNS was over 100 µM in each case. Further, the TGI with UACC-257 melanoma is over 100 µM.

In the case of `CCc1ccc2c(c1)N(CC(C)CN(C)C)c1ccccc1S2` (stereo not given), the TGI in the assay with DU-145 prostate was found to be 21.4 µM; with HL-60(TB) leukemia, 8.66 µM; with T-47D breast it was 10.7 µM; in the assay with SK-OV-3 ovarian it was 18.7 µM; with HOP-62 NSCLC, 17.8 µM; in the assay with A498 renal it was 21.8 µM. Also, the TGI in the assay with CCRF-CEM leukemia was determined as 4.99 µM; with MOLT-4 leukemia it was 1.91 µM; in the assay on SR leukemia it was 11.4 µM; in the assay on M14 melanoma, 4.12 µM; in the assay on HT29 colon, 12.5 µM; with SF-539 CNS, 24.1 µM. In addition, the TGI with UACC-257 melanoma came to 7.19 µM.

With `C=C(C)[C@@H]1CC[C@]2(C(=O)OC)CC[C@]3(C)[C@H](CC[C@@H]4[C@@]5(C)CC[C@H](O)C(C)(C)[C@@H]5CC[C@]43C)[C@@H]12`, the TGI with DU-145 prostate was over 100 µM; in the assay with HL-60(TB) leukemia it was over 100 µM; in the assay on T-47D breast, 34 µM; in the assay on HOP-62 NSCLC, 41.3 µM; in the assay with A498 renal, 36.7 µM; in the assay on CCRF-CEM leukemia, 48.9 µM. The TGI with MOLT-4 leukemia was 44.6 µM; with SR leukemia it was over 100 µM; in the assay with M14 melanoma, over 100 µM; with HT29 colon, 60 µM; in the assay with SF-539 CNS, 34.9 µM; with UACC-257 melanoma, 38.3 µM.

Consider `CCCn1c(=O)c(N2CCN(c3ccccc3)CC2)nc2sc3ccccc3c21`, for which the TGI with DU-145 prostate, in the assay with HL-60(TB) leukemia, in the assay with T-47D breast, with SK-OV-3 ovarian, in the assay on HOP-62 NSCLC and in the assay with A498 renal was over 100 µM throughout. For the same compound, the TGI in the assay on CCRF-CEM leukemia, with MOLT-4 leukemia, in the assay on M14 melanoma, in the assay on HT29 colon, in the assay on SF-539 CNS and with UACC-257 melanoma was over 100 µM each time.

For `CC(=O)OCC1OC(OCCCOP(=S)(OCCC#N)OCC2OC(n3ccc(N)nc3=O)C(OC(=O)c3ccccc3)C2OC(=O)c2ccccc2)C(OC(C)=O)C(OC(C)=O)C1OC(C)=O` (stereo not given), the TGI with DU-145 prostate, with T-47D breast, in the assay on SK-OV-3 ovarian, in the assay on HOP-62 NSCLC, with A498 renal and with CCRF-CEM leukemia was over 100 µM each time. For the same compound, the TGI in the assay with HCC-2998 colon, in the assay on MOLT-4 leukemia, in the assay with SR leukemia, in the assay with M14 melanoma, in the assay with HT29 colon and in the assay on SF-539 CNS was over 100 µM in each case. In the assay with UACC-257 melanoma, this compound registered a TGI of over 100 µM.

Turning to `CC(C)(C)OC(=O)NCCCCC(N)NC(=O)c1ccccc1` (stereo not given), the TGI in the assay with DU-145 prostate, in the assay on T-47D breast, in the assay with SK-OV-3 ovarian, in the assay on HOP-62 NSCLC, with A498 renal and in the assay with CCRF-CEM leukemia was over 100 µM throughout. Moreover, the TGI in the assay with HCC-2998 colon, in the assay with MOLT-4 leukemia, with M14 melanoma, with HT29 colon, in the assay on SF-539 CNS and in the assay on UACC-257 melanoma was over 100 µM each time.

`C=CCOc1ccc(C2C(C(=O)OC)C(=O)CC(O)(c3ccccc3)C2C(=O)OC)cc1OC` (stereo not given): the TGI was over 100 µM in the assay with DU-145 prostate; over 100 µM with HL-60(TB) leukemia; 46.9 µM in the assay with T-47D breast; over 100 µM in the assay on HOP-62 NSCLC; 76.4 µM in the assay with A498 renal; over 100 µM in the assay on CCRF-CEM leukemia. The TGI in the assay with HCC-2998 colon, in the assay with MOLT-4 leukemia, in the assay with SR leukemia, in the assay with HT29 colon and in the assay on UACC-257 melanoma was over 100 µM throughout.

As to `CSc1c(C#N)c(N)n(-c2ccc(Cl)cc2)c(=O)c1C#N`, the TGI with DU-145 prostate, with HL-60(TB) leukemia, in the assay on T-47D breast, in the assay with SK-OV-3 ovarian, in the assay with A498 renal and with HCC-2998 colon was over 100 µM each time. Further, the TGI in the assay on MOLT-4 leukemia, with SR leukemia, in the assay on M14 melanoma, in the assay on HT29 colon, with SF-539 CNS and with UACC-257 melanoma was over 100 µM in each case.
